Reference: the supplement of paper PMC11061612

Assays:
Experiment in all cases: Bliss excess, mean over the matrix (fraction); higher = more synergy
786-0 (Kidney Carcinoma) = system: 786-0 (Kidney Carcinoma)
Outline: (§1)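 Cell lines in DMEM/F12 or RPMI with 10% FBS were plated in 1536-well plates, held 24 hours at 37°C, 5% CO2, then given two-drug dose matrices for 72 hours (DMSO typically 0.2%). Viability was read by CellTiter-Glo 2.0 luminescence and scaled as inhibition from 0 (vehicle wells) to 1 (blank wells). Combination Emax is the second-highest inhibition in the matrix; Bliss excess is observed combination effect minus expected EA + EB − EA·EB, EA and EB being single-agent effects.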

[1] = system: AsPC-1 (Pancreatic Carcinoma)
Outline: as §1

[2] = system: BALL-1 (B-Lymphoblastic Leukemia)
Outline: as §1

[3] = system: Becker (Low Grade Glioma)
Outline: as §1

[4] = system: FLO-1 (Esophageal Adenocarcinoma)
Outline: as §1

[5] = system: HSC-3 (Oral Cavity Carcinoma)
Outline: as §1

HuO-3N1 (Osteosarcoma) = system: HuO-3N1 (Osteosarcoma)
Outline: as §1

[6] = system: KYSE-70 (Esophageal Squamous Cell Carcinoma)
Outline: as §1

[7] = system: LAMA-84 (Chronic Myelogenous Leukemia)
Outline: as §1

[8] = system: LOUCY (T-Lymphoblastic Leukemia)
Outline: as §1

[9] = system: NCI-H1155 (Non-Small Cell Lung Carcinoma)
Outline: as §1

[10] = system: NCI-H1563 (Lung Adenocarcinoma)
Outline: as §1

[11] = system: NCI-H1623 (Lung Adenocarcinoma)
Outline: as §1

[12] = system: NCI-H1755 (Lung Adenocarcinoma)
Outline: as §1

[13] = system: NCI-H810 (Non-Small Cell Lung Carcinoma)
Outline: as §1

[14] = system: PC-14 (Lung Adenocarcinoma)
Outline: as §1

[15] = system: RERF-LC-KJ (Lung Adenocarcinoma)
Outline: as §1

[16] = system: RPMI-8866 (Chronic Myelogenous Leukemia)
Outline: as §1

RT4 (Bladder Carcinoma) = system: RT4 (Bladder Carcinoma)
Outline: as §1

[17] = system: SK-MM-2 (Plasma Cell Myeloma)
Outline: as §1

Row | Compound | Bliss excess (786-0 (Kidney Carcinoma)) | Bliss excess [1] | Bliss excess [2] | Bliss excess [3] | Bliss excess [4] | Bliss excess [5] | Bliss excess (HuO-3N1 (Osteosarcoma)) | Bliss excess [6] | Bliss excess [7] | Bliss excess [8] | Bliss excess [9] | Bliss excess [10] | Bliss excess [11] | Bliss excess [12] | Bliss excess [13] | Bliss excess [14] | Bliss excess [15] | Bliss excess [16] | Bliss excess (RT4 (Bladder Carcinoma)) | Bliss excess [17]
1 | COc1cc2c(cc1OCCCCCOc1cc3c(cc1OC)C(=O)N1C=C(C)C[C@H]1C=N3)N=C[C@@H]1CC(C)=CN1C2=O [SG3199] + O=C(c1cc(Cc2n[nH]c(=O)c3ccccc23)ccc1F)N1CCN(C(=O)C2CC2)CC1 [Olaparib] (first compound max 0.001 µM, 7x7, partner max 10 µM) | -0.0223 | -0.0535 | 0.0476 | -0.0361 | -0.0486 | -0.0067 | -0.0446 | -0.0227 | -0.0015 | -0.039 | 0.0119 | -0.0428 | -0.0342 | -0.0207 | -0.0368 | -0.0274 | -0.0235 | -0.0032 | -0.0164 | -0.0179
2 | CCc1c2c(nc3ccc(O)cc13)-c1cc3c(c(=O)n1C2)COC(=O)[C@]3(O)CC [SN-38] + CN(C)CCCOc1ccc(-c2ccc3ncc4c(c3c2)n(C2CCOCC2)c(=O)n4C)cn1 [AZD0156] (first compound max 0.3 µM, 7x7, partner max 1 µM) | 0.0032 | -0.029 | 0.0492 | 0.0387 | 0.0218 | -0.0063 | -0.0592 | 0.0487 | 0.08 | 0.0406 | 0.0268 | -0.0605 | -0.0496 | 0.0829 | -0.0022 | 0.0407 | -0.083 | 0.0969 | -0.0184 | 0.0076
3 | C[C@@H](c1ccc2nccn2c1)n1nnc2ncc(-c3cnn(C)c3)nc21 [Savolitinib] + CC1(C)CCC(CN2CCN(c3ccc(C(=O)NS(=O)(=O)c4ccc(NCC5CCOCC5)c([N+](=O)[O-])c4)c(Oc4cnc5[nH]ccc5c4)c3)CC2)=C(c2ccc(Cl)cc2)C1 [Venetoclax] (first compound max 1 µM, 7x7, partner max 1 µM) | -0.0848 | -0.0743 | -0.0306 | -0.0182 | -0.0752 | -0.0383 | -0.0708 | -0.0504 | -0.0111 | -0.0803 | -0.0365 | -0.0691 | -0.046 | -0.05 | -0.0517 | -0.0276 | -0.077 | -0.0452 | -0.055 | -0.019
4 | C[C@@H](c1ccc2nccn2c1)n1nnc2ncc(-c3cnn(C)c3)nc21 [Savolitinib] + Cc1c2c(nn1C)CSCc1cc(n(C)n1)CSc1cc(c3ccccc3c1)OCCCc1c(C(=O)O)n(C)c3c-2c(Cl)ccc13 [AZD5991] (first compound max 1 µM, 7x7, partner max 1 µM) | -0.0331 | -0.118 | -0.052 | 0.0103 | -0.032 | -0.018 | -0.0631 | -0.0339 | 0.0136 | 0.0369 | -0.0188 | -0.0271 | -0.0195 | -0.0361 | -0.0517 | -0.0134 | 0.012 | -0.0285 | 0.0148 | -0.0395
5 | Cn1cnc2c(F)c(Nc3ccc(Br)cc3Cl)c(C(=O)NOCCO)cc21 [Selumetinib] + C=CCn1c(=O)c2cnc(Nc3ccc(N4CCN(C)CC4)cc3)nc2n1-c1cccc(C(C)(C)O)n1 [AZD1775] (first compound max 10 µM, partner max 1 µM) | -0.0543 | -0.046 | 0.0018 | 0.0145 | -0.0108 | -0.0355 | -0.0972 | -0.0339 | -0.0385 | -0.196 | -0.0474 | -0.0393 | -0.0223 | 0.0496 | -0.0632 | -0.0475 | -0.0044 | -0.0049 | -0.0127 | -0.0198
6 | Cn1cnc2c(F)c(Nc3ccc(Br)cc3Cl)c(C(=O)NOCCO)cc21 [Selumetinib] + CC(C)n1c(=O)n(C)c2cnc3cc(F)c(-c4ccc(OCCCN5CCCCC5)nc4)cc3c21 [AZD1390] (first compound max 10 µM, 7x7, partner max 0.3 µM) | -0.0587 | -0.0093 | -0.0156 | -0.007 | -0.0276 | -0.0424 | -0.0618 | -0.0481 | -0.0309 | -0.0166 | -0.0679 | -0.0229 | 0.0076 | 0.0153 | -0.0525 | -0.0015 | -0.0073 | -0.0193 | -0.0267 | -0.0084
7 | Cn1cnc2c(F)c(Nc3ccc(Br)cc3Cl)c(C(=O)NOCCO)cc21 [Selumetinib] + CCN(CCO)CCCOc1ccc2c(Nc3cc(CC(=O)Nc4cccc(F)c4)[nH]n3)ncnc2c1 [AZD2811] (first compound max 10 µM, 7x7, partner max 1 µM) | -0.0344 | 0.0032 | 0.0638 | -0.0119 | -0.0448 | -0.0877 | -0.106 | 0.0047 | 0.0237 | -0.0979 | 0.0907 | 0.0102 | 0.0134 | 0.0386 | -0.037 | 0.0372 | -0.003 | 0.0543 | -0.0816 | -0.0037
